T1: Rhizobium meliloti anthranilate synthase, monomeric (SEQ ID NO: 7) (Rhizobium meliloti, UniProt P15395)
T1 construct: made in house; host or cells: E. coli BL-21, plasmid pMON66596 (pSE280)
T1 sequence (P15395 1-729): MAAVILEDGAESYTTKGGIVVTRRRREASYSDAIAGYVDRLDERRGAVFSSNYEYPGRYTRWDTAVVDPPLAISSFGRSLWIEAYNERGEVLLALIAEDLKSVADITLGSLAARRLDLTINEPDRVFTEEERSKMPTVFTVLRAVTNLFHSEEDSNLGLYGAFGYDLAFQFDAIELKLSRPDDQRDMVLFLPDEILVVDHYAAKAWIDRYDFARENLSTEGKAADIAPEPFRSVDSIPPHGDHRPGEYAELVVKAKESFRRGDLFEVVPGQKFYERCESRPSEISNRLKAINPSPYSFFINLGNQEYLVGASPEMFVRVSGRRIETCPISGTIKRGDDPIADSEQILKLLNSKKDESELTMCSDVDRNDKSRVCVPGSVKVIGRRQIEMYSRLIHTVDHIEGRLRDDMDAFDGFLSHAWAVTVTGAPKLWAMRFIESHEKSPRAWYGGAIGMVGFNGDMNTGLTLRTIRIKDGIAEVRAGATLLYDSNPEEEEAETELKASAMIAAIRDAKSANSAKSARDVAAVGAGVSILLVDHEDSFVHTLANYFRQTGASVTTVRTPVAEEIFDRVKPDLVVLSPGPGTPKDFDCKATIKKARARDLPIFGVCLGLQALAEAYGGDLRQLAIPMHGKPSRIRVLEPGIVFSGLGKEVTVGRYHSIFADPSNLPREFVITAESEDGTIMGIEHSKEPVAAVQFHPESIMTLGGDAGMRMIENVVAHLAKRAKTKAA

B1: Ruta graveolens anthranilate synthase α-subunit: Ruta graveolens anthranilate synthase α-subunit isoenzyme, Genbank GI 960291 (protein, listed as Ruta graveolens)
chain: MSAAATSMQSLKFSNRLVPPSRRLSPVPNNVTCNNLPKSAAPVRTVKCCASSWNSTINGAAATTNGASAASNGASTTTTTYVSDATRFIDSSKRANLVPLYRCIFADHLTPVLAYRCLVQEDDKETPSFLFESVEPGRISTVGRYSVVGAHPVMEVIAKDNMVTVMDHEKGSLVEEVVDDPMEIPRRISEDWKPQIIDDLPEAFCGGWVGFFSYDTVRYVEKKKLPFSKAPQDDRNLADMHLGLYNDVIVFDHVEKKVYVIHWVRLNQQSSEEKAYAEGLEHLERLVSRVQDENTPRLAPGSIDLHTGHFGPPLKKSNMTCEEYKMAVLAAKEHIQAGDIFQIVLSQRFERRTFADPFEVYRALRVVNPSPYMTYMQARGCVLVASSPEILTRVKKNKIVNRPLAGTARRGRTTEEDEMLETQLLKDAKQCAEHVMLVDLGRNDVGKVSKSGSVKVEKLMNVERYSHVMHISSTVTGELQDNLSCWDALRAALPVGTVSGAPKVKAMELIDELEVNRRGPYSGGFGGISFTGDMDIALALRTIVFQTGTRYDTMYSYKNATKRRQWVAYLQAGAGIVADSDPDDEHRECQNKAAGLARAIDLAESAFVNKSSS

Columns and labels:
[1] = target: T1, Rhizobium meliloti anthranilate synthase, monomeric (SEQ ID NO: 7); assay: Activity assay of crude cell extract by HPLC; format: biochemical; conditions: BL-21 cells with pMON66596, HPLC, read-out: ICso (trp)
Excerpt: pMON66596 was transformed into BL-21 cells and induced with IPTG to express protein.

[2] = system: Ruta graveolens anthranilate synthase; conditions: Bohlmann et al. 1996; cited from earlier work

Molecule	IC50 [1] [µM]	sensitivity to tryptophan inhibition [2]
N[C@@H](Cc1c[nH]c2ccccc12)C(=O)O [tryptophan, L-tryptophan]	~10	–
B1	–	less sensitive to tryptophan inhibition
